Measured values from patent publication US4735955A, “2-substituted cycloheptoimidazole derivatives and anti-ulcerative agents containing the same” (Kotobuki Seiyaku Co., Ltd., priority 1985, dated 1988).

Key:
gastric-acid secretion = test: Gastric acid antisecretory activity, pylorus-ligated rat (method of Shay); assay type: in vivo; conditions: intraduodenal, 50 mg/kg intraduodenally just after pylorus ligation, 4 hours after ligation, read-out: Total Acid Inhibition
Protocol: Gastric acid antisecretory activities
Inhibitory activities of gastric-acid secretion are determined by the method of Shay (Gastroenterology 26, 906). Rats are fasted for 24 hours and pylorus ligation is carried out under light anesthesia.
Drug is given intraduodenally just after the ligation. Four hours after ligation, the stomach of the rat is removed and the acidity of gastric juice is determined.

[1] = Cytoprotective activity, inhibition of ethanol-induced ulcer (method of Robert); assay type: in vivo; conditions: rat, 100 mg/kg perorally 30 minutes before 1 ml absolute ethanol, stomach removed one hour after ethanol
Protocol: Cytoprotective Activities
Inhibitory activities of ethanol-induced ulcer are determined by the method of Robert (Gastroenterology 77, 433~443). Rats are fasted for 24 hours and are given 1 ml of absolute ethanol perorally. One hour after administration of ethanol, the stomach of the rat is removed. The length of each ulcer occurring in the grandulor stomach is determined and each ulcer in one rat is accounted as the ulcer-index. The test compounds are given perorally 30 minutes before absolute ethanol administration.

(H^+,K^+)ATPase = target: T1, (H^+,K^+)ATPase (Sus scrofa, UniProt P19156); test: Inhibition of (H^+,K^+)ATPase activity (method of Fellenius); assay type: biochemical; conditions: 3 × 10^-4 M, pig gastric mucosa, pH 7.4, 37° C.
T1 construct: (H^+,K^+)ATPase is prepared from the pig gastric mucosa; from tissue; host or cells: pig gastric mucosa
Protocol: Inhibition of (H^+,K^+)ATPase activities. Inhibition of (H^+,K^+) ATPase activities is determined by the method of F. Fellenius et al., Nature 290, pp. 159~161, 1981. (H^+,K^+)ATPase is prepared from the pig gastric mucosa and the test compound is incubated with […], 40 mM of tris-buffer (pH 7.4), 2 mM of MgCl2 and 10 mM of KCl at 37° C. Inorganic phosphate occurring by stimulation of ATPase is determined.

T1 sequence (P19156 2-1034 limits assumed): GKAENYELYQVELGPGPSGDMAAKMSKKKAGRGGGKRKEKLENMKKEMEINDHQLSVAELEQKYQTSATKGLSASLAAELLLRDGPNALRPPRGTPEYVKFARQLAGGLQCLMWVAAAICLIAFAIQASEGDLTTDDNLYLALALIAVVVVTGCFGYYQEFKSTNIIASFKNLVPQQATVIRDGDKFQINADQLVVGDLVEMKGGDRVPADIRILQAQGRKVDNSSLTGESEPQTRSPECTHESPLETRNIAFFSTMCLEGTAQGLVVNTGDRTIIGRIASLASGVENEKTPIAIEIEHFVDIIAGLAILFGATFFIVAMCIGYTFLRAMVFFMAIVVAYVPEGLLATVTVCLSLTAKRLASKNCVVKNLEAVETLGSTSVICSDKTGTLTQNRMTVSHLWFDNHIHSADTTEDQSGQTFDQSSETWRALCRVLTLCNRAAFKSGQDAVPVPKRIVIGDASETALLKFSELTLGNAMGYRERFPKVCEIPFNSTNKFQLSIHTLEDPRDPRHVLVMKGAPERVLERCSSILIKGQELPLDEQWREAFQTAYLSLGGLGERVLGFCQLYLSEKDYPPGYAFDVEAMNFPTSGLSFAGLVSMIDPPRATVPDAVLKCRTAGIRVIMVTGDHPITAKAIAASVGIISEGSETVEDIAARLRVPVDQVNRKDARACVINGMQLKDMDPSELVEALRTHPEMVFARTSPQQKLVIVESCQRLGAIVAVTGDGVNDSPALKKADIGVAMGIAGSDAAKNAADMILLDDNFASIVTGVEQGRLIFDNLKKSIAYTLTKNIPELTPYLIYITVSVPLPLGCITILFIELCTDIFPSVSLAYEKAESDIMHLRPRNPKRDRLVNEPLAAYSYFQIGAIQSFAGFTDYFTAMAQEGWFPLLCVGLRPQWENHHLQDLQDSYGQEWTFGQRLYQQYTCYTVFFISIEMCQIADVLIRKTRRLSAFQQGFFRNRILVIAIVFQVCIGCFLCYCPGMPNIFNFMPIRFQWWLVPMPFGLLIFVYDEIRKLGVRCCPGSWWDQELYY
T1 sequence (P18434 whole entry partner): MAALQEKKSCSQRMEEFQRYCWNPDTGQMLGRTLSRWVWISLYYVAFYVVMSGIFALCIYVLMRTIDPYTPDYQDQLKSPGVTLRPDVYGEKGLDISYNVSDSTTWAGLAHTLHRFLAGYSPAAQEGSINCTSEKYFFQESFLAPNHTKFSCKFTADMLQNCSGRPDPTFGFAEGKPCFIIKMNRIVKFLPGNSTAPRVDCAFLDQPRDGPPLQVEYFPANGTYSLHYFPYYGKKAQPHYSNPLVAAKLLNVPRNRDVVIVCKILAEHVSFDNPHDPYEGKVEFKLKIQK

inhibition at 300 µM ((H^+,K^+)ATPase) [%] | Compound | inhibition in vivo at 50 mg/kg (gastric-acid secretion) [%] | Inhibition of ethanol-induced ulcer [1] [%]
– | CC(C)c1ccc2nc(SCc3ccccn3)nc-2cc1 [Compound 1, 2-(2-Pyridyl)methylthio-6-isopropyl-cycloheptoimidazole] | 80.5 | –
– | c1ccc2nc(SCCn3cnc4ccccc43)nc-2cc1 [Compound 3, 2-(1-Benzimidazolyl)ethylthio-cycloheptoimidazole] | 22.4 | –
– | CSc1nnc(CSc2nc3cccccc-3n2)s1 [Compound 8, 2-(2-Methylthio-1,3,4-thiadiazole-5-yl)methylthio-cycloheptoimidazole] | 20.6 | –
– | c1ccc2nc(SCc3cccnc3)nc-2cc1 [Compound 9, 2-(3-Pyridyl)methylthio-cycloheptoimidazole] | – | 83.1
– | c1ccc2nc(SCc3ccn[nH]3)nc-2cc1 [Compound 10, 2-(5-Pyrazolyl)methylthio-cycloheptoimidazole] | 54.4 | –
– | c1ccc2nc(SCc3ccncc3)nc-2cc1 [Compound 12, 2-(4-Pyridyl)methylthio-cycloheptoimidazole] | 66.8 | –
– | c1ccc2nc(SCc3c[nH]cn3)nc-2cc1 [Compound 13, 2-(4-imidazolyl)methylthio-cycloheptoimidazole] | 66.5 | 88.1
– | Nc1nc(CSc2nc3cccccc-3n2)cs1 [Compound 14, 2-(2-Aminothiazole-4-yl)methylthio-cycloheptoimidazole] | – | 90.3
– | CC(C)c1ccc2nc(SCc3csc(N)n3)nc-2cc1 [Compound 15, 2-(2-Aminothiazole-4-yl)methylthio-6-isopropyl-cycloheptoimidazole] | 21 | 90.0
– | COc1ccc(CSc2nc3cccccc-3n2)cc1 [Compound 26, 2-(p-Methoxyphenyl)methylthio-cycloheptoimidazole] | 81.6 | –
– | Clc1ccc(CSc2nc3cccccc-3n2)cc1 [Compound 28, 2-(p-Chlorophenyl)methylthio-cycloheptoimidazole] | 39.1 | –
– | Nc1cccc(CSc2nc3cccccc-3n2)c1 [Compound 30, 2-(m-Aminophenyl)methylthio-cycloheptoimidazole] | 52.5 | –
– | c1ccc(CSc2nc3cccccc-3n2)cc1 [Compound 31, 2-(Phenyl)methylthio-cycloheptoimidazole] | 78.9 | –
– | Cc1oncc1CSc1nc2cccccc-2n1 [Compound 34, 2-(5-Methylisoxazole-4-yl)methylthio-cycloheptoimidazole] | 70.1 | –
48 | Cc1nc(-c2ccccc2)c(CSc2nc3cccccc-3n2)o1 [Compound 37, 2-(2-Methyl-4-Phenyloxazole-5-yl)methylthio-cycloheptoimidazole] | – | –
25 | COc1ccc(C[S+]([O-])c2nc3cccccc-3n2)c(OC)c1OC (centres unmarked) [Compound 44, 2-(2,3,4-Trimethoxyphenyl)methylthio-cycloheptoimidazole-S-oxide] | 89.8 | –
– | Cc1ccc(C[S+]([O-])c2nc3cccccc-3n2)cc1 (centres unmarked) [Compound 45, 2-(p-Tolyl)methylthio-cycloheptoimidazole-S-oxide] | 90.7 | –
32 | COc1ccc(C[S+]([O-])c2nc3cccccc-3n2)cc1 (centres unmarked) [Compound 47, 2-(p-Methoxyphenyl)methylthio-cycloheptoimidazole-S-oxide] | 90.7 | –
– | CN(C)c1ccc(C[S+]([O-])c2nc3cccccc-3n2)cc1 (centres unmarked) [Compound 49, 2-(p-Dimethylaminophenyl)methylthio-cycloheptoimidazole-S-oxide] | 33.6 | –
– | [O-][S+](Cc1c[nH]cn1)c1nc2cccccc-2n1 (centres unmarked) [Compound 51, 2-(4-imidazolyl)methylthio-cycloheptoimidazole-S-oxide] | 63.6 | –
– | Cc1cc(C[S+]([O-])c2nc3cccccc-3n2)on1 (centres unmarked) [Compound 52, 2-(3-Methylisoxazole-5-yl)methylthio-cycloheptoimidazole-S-oxide] | 96.9 | –
45 | Cc1noc(C)c1C[S+]([O-])c1nc2cccccc-2n1 (centres unmarked) [Compound 53, 2(3,5-Dimethylisoxazole-4-yl)methylthio-cycloheptoimidazole-S-oxide] | 95.7 | –
46 | Nc1ccccc1CSc1nc2cccccc-2n1 [Compound 57, 2-(o-aminophenyl)methylthio-cycloheptoimidazol] | 92.9 | –
